Measurements as given in patent US20160022718A1, “METHODS OF LOWERING BLOOD PRESSURE” (LEXICON PHARMACEUTICALS, INC., priority 2010, published 2016).

System: patients with type 2 diabetes mellitus
Assay: randomized, double-blind, placebo controlled Phase 2a clinical trial, 28 days once daily oral dosing
Assay type: in vivo, human
Settings: for Change in Weight, change from baseline / Seated Diastolic BP, change from baseline / Seated Systolic BP, change from baseline / Serum Triglyceride, change from baseline: four-week treatment; for Change in Weight, change from baseline: placebo −2.2; for Seated Diastolic BP, change from baseline: placebo −2.9; for Seated Systolic BP, change from baseline: placebo −4.3; for Serum Triglyceride, change from baseline: placebo −20.2; for reduction of average percent HbA1c after four weeks of dosing: placebo 0.49; for reduction in fasting plasma glucose level at week four: placebo 15.1 mg/dl
Description: Certain aspects of this invention may be understood with reference to the figures, which provide results obtained from a randomized, double-blind, placebo controlled Phase 2a clinical trial, wherein 150 mg and 300 mg doses of a compound of the invention were orally administered once daily to patients with type 2 diabetes mellitus.
This invention is based, in part, on findings—provided herein—obtained from a randomized, double-blind, placebo controlled Phase 2a clinical trial, wherein 150 mg/day and 300 mg/day doses of a dual SGLT1/2 inhibitor were administered to patients with type 2 diabetes mellitus. The dual SGLT1/2 inhibitor was (2S,3R,4R,5S,6R)-2-(4-chloro-3-(4-ethoxybenzyl)phenyl)-6-(methylthio)tetrahydro-2H-pyran-3,4,5-triol, which has the structure:
Patients (n=36) with type 2 diabetes mellitus received one of two oral doses of (2S,3R,4R,5S,6R)-2-(4-chloro-3-(4-ethoxybenzyl)phenyl)-6-(methylthio)tetrahydro-2H-pyran-3,4,5-triol, given as 150 mg or 300 mg once daily, or matching placebo, for 28 days.
In this study, patients on metformin were taken off of the drug 16 days prior to day 0, the day dosing first began.

[1] = both treatment groups (150 mg/day and 300 mg/day)

Compound: CCOc1ccc(Cc2cc([C@@H]3O[C@H](SC)[C@@H](O)[C@H](O)[C@H]3O)ccc2Cl)cc1 [(2S,3R,4R,5S,6R)-2-(4-chloro-3-(4-ethoxybenzyl)phenyl)-6-(methylthio)tetrahydro-2H-pyran-3,4,5-triol]
- Change in Weight, change from baseline (150 mg (n = 12)): −3.4%
- Seated Diastolic BP, change from baseline (150 mg (n = 12)): −5.8 mmHg
- Seated Systolic BP, change from baseline (150 mg (n = 12)): −10.3 mmHg
- Serum Triglyceride, change from baseline (150 mg (n = 12)): -66.6 mg/dL
- reduction of average percent HbA1c after four weeks of dosing (150 mg dose group, p=0.036, baseline 8.22%): 1.15%
- reduction in fasting plasma glucose level at week four (150 mg dose group): 53.4 mg/dL
- dose-limiting toxicities (150 mg or 300 mg once daily, 28 days): no evidence of dose-limiting toxicities was observed
- adverse events (150 mg or 300 mg once daily, 28 days, evenly distributed across all dose groups, including placebo): generally mild
- insulin sensitivity, homeostatic model assessment (HOMA) (FIG. 4) (150 mg/day and 300 mg/day groups vs placebo, day 27): improved insulin sensitivity
- mean plasma glucose AUC (FIG. 3) (150 mg/day and 300 mg/day groups, after one day of treatment): statistically significant decreases
- Change in Weight, change from baseline (300 mg (n = 12)): −3.7%
- Seated Diastolic BP, change from baseline (300 mg (n = 12)): −5.3 mmHg
- Seated Systolic BP, change from baseline (300 mg (n = 12)): −13.1 mmHg
- Serum Triglyceride, change from baseline (300 mg (n = 12)): -62.8 mg/dL
- reduction of average percent HbA1c after four weeks of dosing (300 mg dose group, p=0.017, baseline 8.50%): 1.25%
- percentage of patients achieving fasting plasma glucose levels of <105 mg/dl at week four (300 mg dose group, p=0.037 vs placebo): 42%
- reduction in fasting plasma glucose level at week four (300 mg dose group): 65.9 mg/dL
- share of patients with HbA1c levels reduced to less than or equal to 7% (both dose groups (150 mg and 300 mg), four weeks): half
- glucosuria over the 28-day dosing period compared to placebo (both dose levels (150 mg and 300 mg once daily, oral), preliminary data): significant and sustained glucosuria
- glucose tolerance vs placebo group (FIG. 2) [1]: greater glucose tolerance
- mean arterial pressure, day 28 compared to baseline (FIG. 10) [1]: decreased
- post-prandial glucose levels compared to placebo (FIG. 5) [1]: rapid, statistically significant decrease
